{
  "source": "patent US20030180294A1",
  "about": "“Methods of extending corneal graft survival” (priority 2002, published 2003)",
  "key": {"[1]": {"test_system": "corneal transplants in the Lewis/Wistar-Furth combination", "experiment": "rat model of keratoplasty, corneal graft survival", "assay_type": "in vivo", "conditions": "Lewis cornea to Wistar-Furth recipient, systemic 0.5 to 200 mg/kg/day or eye drop 0.05% to 5.0%, versus vehicle (rejection on average at day 30)", "procedure": "Grafts are prepared and transferred according to the well-characterized rat model of keratoplasty with transplantation of corneas from Lewis strain rats to Wistar-Furth recipients (Callanan et al., Transplantation 45:437-443 (1988)). Each treatment group administered vehicle or test agent includes nine to fourteen rats. Grafts are observed clinically and scored three times per week for signs of rejection according to the criteria in Callanan et al., supra, 1988. Day 60 following surgery represents a two-fold prolongation in the expected mean survival time for corneal transplants in the Lewis/Wistar-Furth combination and therefore is selected as an advantageous time for terminating treatment. Rats bearing grafts not rejected by day 60 are observed for an additional 14 days to determine if the host's immune system has been tolerized. At this time, 80% of the grafted eyes are snap frozen for cryostat sectioning, and the remaining 20% of the eyes are fixed in formalin for H & E staining.\nThe VEGFR-3 tyrosine kinase inhibitor MAE87, MAE106 or MAZ51 is administered systemically at various concentrations, ranging from 0.5 to 200 mg/kg/day. In other animals, the compound is administered as an eye drop solution in various concentrations ranging from 0.05% to 5.0% and administered as various frequencies (once per day, two times per day and three times per day)."}, "VEGFR-3": {"molecular_target": "VEGFR-3 (Homo sapiens, UniProt P35916)", "sequence (P35916 25-1363, species assumed)": "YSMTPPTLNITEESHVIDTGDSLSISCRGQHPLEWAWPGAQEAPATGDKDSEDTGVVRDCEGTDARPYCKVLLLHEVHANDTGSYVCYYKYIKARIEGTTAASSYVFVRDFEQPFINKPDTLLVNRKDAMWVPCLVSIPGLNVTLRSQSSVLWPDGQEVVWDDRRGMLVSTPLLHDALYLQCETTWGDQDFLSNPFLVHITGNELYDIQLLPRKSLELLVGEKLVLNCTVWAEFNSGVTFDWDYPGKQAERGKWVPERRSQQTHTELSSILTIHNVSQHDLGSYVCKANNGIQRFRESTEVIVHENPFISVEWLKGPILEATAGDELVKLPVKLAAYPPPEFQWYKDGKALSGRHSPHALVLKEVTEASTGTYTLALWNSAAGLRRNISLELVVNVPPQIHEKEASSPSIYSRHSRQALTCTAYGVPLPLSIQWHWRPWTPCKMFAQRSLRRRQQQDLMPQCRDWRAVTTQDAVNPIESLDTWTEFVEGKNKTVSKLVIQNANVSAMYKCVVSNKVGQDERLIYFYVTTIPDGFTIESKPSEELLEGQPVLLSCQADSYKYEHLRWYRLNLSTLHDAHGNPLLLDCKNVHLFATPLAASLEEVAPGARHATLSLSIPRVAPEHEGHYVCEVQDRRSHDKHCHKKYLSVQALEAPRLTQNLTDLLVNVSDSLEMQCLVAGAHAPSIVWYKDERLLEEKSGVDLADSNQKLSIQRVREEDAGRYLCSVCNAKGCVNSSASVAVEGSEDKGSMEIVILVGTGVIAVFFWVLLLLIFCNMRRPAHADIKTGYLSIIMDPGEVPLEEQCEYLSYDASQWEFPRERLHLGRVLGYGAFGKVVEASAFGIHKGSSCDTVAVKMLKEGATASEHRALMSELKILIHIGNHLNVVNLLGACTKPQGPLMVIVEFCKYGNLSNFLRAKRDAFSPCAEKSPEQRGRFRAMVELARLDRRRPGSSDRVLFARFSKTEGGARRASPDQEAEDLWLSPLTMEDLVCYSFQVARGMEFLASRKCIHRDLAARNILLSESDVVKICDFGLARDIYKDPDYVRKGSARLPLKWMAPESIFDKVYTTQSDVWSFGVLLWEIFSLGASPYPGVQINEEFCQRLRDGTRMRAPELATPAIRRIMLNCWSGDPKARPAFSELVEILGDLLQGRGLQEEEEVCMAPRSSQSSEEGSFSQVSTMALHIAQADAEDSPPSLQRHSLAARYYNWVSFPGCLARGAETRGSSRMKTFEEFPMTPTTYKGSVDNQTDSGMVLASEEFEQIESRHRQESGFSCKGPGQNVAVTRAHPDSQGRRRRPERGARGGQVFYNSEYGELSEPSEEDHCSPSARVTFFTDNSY", "conditions": "VEGF-C and VEGF-D induced; cited from earlier work"}},
  "data": [
    {"smiles": "O=C1Nc2ccccc2C1=Cc1ccc(O)cc1O", "note": "[MAE87, 3(2,4-dihydroxy-benzylidene)-1,3-dihydro-indol-2-one]", "values": [
      {"measurement": "mean graft survival (delay in evidence of graft rejection)", "setting": "[1]", "result": "increased mean graft survival"}
    ]},
    {"smiles": "COc1ccc(C=C2C(=O)Nc3ccccc32)cc1F", "note": "[MAE106, 3-(3-fluoro-4-methoxy-benzylidene)-1,3-dihydro-indol-2-one]", "values": [
      {"measurement": "VEGFR-3 kinase activity versus VEGFR-2 (specificity)", "setting": "VEGFR-3", "result": "differentially block VEGF-C and VEGF-D induced VEGFR-3 kinase activity compared to that of VEGFR-2"},
      {"measurement": "mean graft survival (delay in evidence of graft rejection)", "setting": "[1]", "result": "increased mean graft survival"}
    ]},
    {"smiles": "CN(C)c1ccc(C=C2C(=O)Nc3ccccc32)c2ccccc12", "note": "[MAZ51, 3-(4-dimethylamino-naphthalen-1-ylmethylene)-1,3-dihydro-indol-2-one]", "values": [
      {"measurement": "VEGFR-3 kinase activity versus VEGFR-2 (specificity)", "setting": "VEGFR-3", "result": "differentially block VEGF-C and VEGF-D induced VEGFR-3 kinase activity compared to that of VEGFR-2"},
      {"measurement": "mean graft survival (delay in evidence of graft rejection)", "setting": "[1]", "result": "increased mean graft survival"}
    ]}
  ]
}
